Columns and labels:
[1] = Lactone ring stability in PBS by HPLC; format: physicochemical; conditions: 37° C., 1 μM
Procedure: FIG. 12 contrasts the improved stabilities of four novel homosilatecans of the present invention with their corresponding silatecan structure containing the α-hydroxylactone functionality. All the experiments of FIG. 12 were conducted in PBS at 37° C.
(§1) HPLC solvents were from Fisher Scientific.
To determine the stabilities of homosilatecans in PBS, an aliquot of each of the homosilatecans in DMSO was added to phosphate buffered saline (PBS), pH 7.4 in a HPLC autosampler vial maintained at 37° C. in a water bath to result in final drug concentration of 1 μM. The drug-containing vial was quickly transferred to the autosampler maintained at 37° C. and aliquots analyzed at various time points. All the determinations were done in triplicate. The data was collected and analyzed using Waters Millenium software. The fraction of lactone was calculated using the peak area of lactone and carboxylate peak and using the lactone/carboxylate ratio.

[2] = Lactone ring stability in PBS containing human serum albumin by HPLC; format: in vitro ADME; conditions: PBS with 30 mg/ml HSA, 37° C., 1 μM
Procedure: FIG. 13 depicts the improved stabilities of four novel homosilatecans of the current invention following incubation in PBS containing 30 mg/ml human serum albumin at 37° C. […] All the experiments of FIG. 14 were conducted in human plasma at 37° C. Plasma samples were continuously aerated by a stream of blood gas resulting in the maintenance of pH at values of 7.5±0.1.
as §1
To study the stabilities of homosilatecans in PBS containing human serum albumin (HSA), the HSA was dissolved in PBS, pH 7.4 at the concentration of 30 mg/ml and incubated at 37° C. The pH was measured and adjusted to 7.4+/−0.5 using 0.1 M KOH or 0.1 M HCl. Incubation continued until pH stabilized within the target range. An aliquot of PBS/HSA was removed and placed in an autosampler vial and maintained at 37° C. for 10 min. An aliquot of the drug in DMSO was added to the sample resulting in a final drug concentration of 1 μM. The vial was quickly added to the HPLC autosampler maintained at 37° C. and aliquots were injected and analyzed by HPLC at different time points. The data analysis was as described above for the drug in PBS only samples.

[3] = Lactone ring stability in mouse blood by HPLC; conditions: for Ratio of Lactone Level Mouse/Human / underestimation of human blood lactone level by mouse blood: blood; for Ratio of Lactone Level Mouse/Human: 3 hours of incubation; for Percent Lactone in Mouse Blood after 3 Hours of Incubation: pH 7.4, 37° C.; for underestimation of human blood lactone level by mouse blood: 3 hours
Procedure: The hydrolysis kinetics of camptothecins in the presence of different blood components were determined by a quantitative C18 reversed-phase high-performance liquid chromatography (HPLC) assay modified from methodologies described previously in the literature cited above. The preparation of whole blood and fractionated blood samples was carried out as described previously. Crystallized HSA of high purity (>97%) from Sigma Chemical (St. Louis, Mo.) was used. HSA stock solutions were prepared in PBS buffer with a final pH of 7.40±0.05. HSA concentrations were determined by UV absorbance at 278 nm using an extinction coefficient of 39,800 M^−1 cm^−1 (Porter, 1992). All other agents were reagent grade and were used without further purification. High purity water provided by a Milli-Q UV PLUS purification system (Bedford, Mass.) was utilized in all experiments. HPLC solvents were from Fisher Scientific. Human plasma and red blood cells were obtained from Central Kentucky Blood Center. […] Blood from mice was collected in heparinized tubes and stored at 5-10° C. until use.
HPLC assays were performed either on a Waters Alliance 2690 HPLC system equipped with a temperature-controlled autosampler and Waters 474 scanning fluorescence detector. A second HPLC system was composed of a Waters HPLC system composed of 501 HPLC pumps, 717 Plus temperature-controlled autosampler and 470 scanning fluorescence detector. The HPLC assay procedures used for the homosilatecans are summarized below. Solvent A consisted of acetonitrile and Solvent B was 2% triethylammonium acetate, pH 5.5, with a flow rate of 1 ml/min. For DB-38 an isocratic elution was used: 33% Solvent A; 67% Solvent B; λex:345 nm and λem:518 nm. For DB-81 an isocratic elution was used: 56% Solvent A; 44% Solvent B; and λex:375 nm and λem:444 nm. For DB-90 an isocratic elution was used: 41% Solvent A; 59% Solvent B; λex:412 nm and λem:526 nm. For DB-91 an isocratic elution of 42% Solvent A, 58% Solvent B, and λex:392 nm and λem:562 nm.
To determine drug stability in whole blood, whole blood was incubated at 37° C. for 30 min and pH determined. Blood pH was adjusted to 7.4+/−0.5 using either 0.1 M KOH or 0.1 M HCl. Blood samples were incubated at 37° C. for 30 min and pH remeasured to ensure that it is within the range before an individual assay was started. Aliquots of blood (2 ml each) were removed and placed in three disposable glass test tubes and the tubes were incubated at 37° C. […] Incubation at 37° C. was continued and 150 μl aliquots were removed at different time points and added to 600 μl of cold methanol (−20° C.) in an eppendorf tube. The tube was then vortexed for 10 sec and centrifuged in a table top microcentrifuge at 8000 rpm for 45 sec. The Supernatant was removed and placed in an autosampler vial and the vial quickly added to the autosampler maintained at 4° C. The sample was analyzed immediately on the HPLC set-up. The data analysis was as described for the drug in PBS only samples.

[4] = Lactone ring stability in whole human blood by HPLC; conditions: for Percent Lactone in Human Blood after 3 Hours of Incubation: pH 7.4, 37° C. (Table 4); for % Lactone: whole human blood, 1 μM
Procedure: All experiments were conducted at pH 7.4 and 37° C.
as §1

[5] = Fluorescence anisotropy titration, equilibrium binding to DMPC small unilamellar vesicles; format: physicochemical; conditions: for KDMPC overall association constant: electroneutral DMPC vesicles, PBS pH 7.4, 37° C., K values subject to 10% uncertainty
Procedure: As a consequence of the brilliant fluorescence emissions from the newly synthesized homosilatecans (a summary of the spectral parameters can be found in Table 1), the lipid bilayer adsorption isotherms summarized in FIG. 4 were relatively free from any background signal. The method of fluorescence anisotropy titration was used to construct the adsorption isotherms. The experiments were conducted at drug concentrations of 1 μM in PBS buffer (37° C.). […] Because of the potential of the lactone ring of the homosilatecans and camptothecins to hydrolyze in PBS, anisotropy values at each lipid concentration were determined immediately (approx. 1 min.) following the addition of the lactone form of each agent to the liposome suspension as to minimize any possibility of conversion to the carboxylate form. Using drug concentrations of 1 μM and long pass filters to isolate emitted light from background signal (that is, scattered exciting light and extraneous fluorescence signal resulting from the possible presence of impurities), signal levels from drugs dissolved in PBS buffer were typically 99.97% in the absence of membrane and greater than 98% in the presence of membrane. Adsorption isotherms were used to determine overall association constants for the homosilatecan, silatecan, and camptothecin drugs. Overall association constants are defined as: K=[AB]/[AF][L] where [AB] represents the concentration of bound drug, [AF] represents the concentration of free drug, and [L] represents the total lipid concentration in the vesicle suspension. This equation is valid when the concentration of free lipid is approximately equal to the concentration of total lipid (that is, the concentration of free lipid is in significant excess over the concentration of bound drug). Provided this condition is satisfied, K may be determined from the inverse of the slope of a double reciprocal plot. In such a double reciprocal plot, 1/fraction of the total drug bound is plotted vs. 1/lipid concentration, with a y-intercept value of 1 (for a system displaying binding site homogeneity). Such double-reciprocal plots for the associations of the new homosilatecans analogs (both lactone and carboxylate forms) with DMPC and DMPG small unilamellar vesicle (SUV) preparations were linear with good correlation coefficients.
The studies summarized in Table 2 examine the structural basis of homosilatecan associations for lipid bilayers. Two types of membranes were included in these studies which were conducted under near physiological conditions of pH and temperature; these membranes include fluid-phase and electroneutral L-α-dimyristoylphosphatidyl-choline (DMPC); and fluid-phase and negatively-charged L-α-dimyristoylphosphatidylglycerol (DMPG). DMPC and DMPG have identical chain length but the charges on their head groups differ.
In the studies of Table 2, binding isotherms were constructed using the method of fluorescence anisotropy titration as discussed above, and K values were determined from the slopes of the double-reciprocal plots. The K values are subject to 10% uncertainty. One of the most striking features of the data contained in Table 2 is the strong modulation which can be achieved through the creation of A,B,E-ring modified camptothecins (for example, the homosilatecans known as DB-38, DB-90, and DB-91) or B,E-ring modified camptothecins (for example, the homosilatecan known as DB-81). Homosilatecans containing either a sole substitution at the 7 position or dual substitution at the 7 and 10 positions have been created and found to display very high lipophilicities. Included in Table 2 are camptothecin compounds (topotecan and camptothecin). For DB-81, the lipophilicity for DMPC membranes relative to corresponding value for topotecan increases over 1,400-fold. Data for these agents were included to show the highly lipophilic nature of the new homocamptothecins relative to compounds such as topotecan and camptothecin. […]

[6] = system: MDA-MB-435 tumorigenic metastatic human breast cancer cells; assay: Cytotoxicity, sulphorrhodamine B (SRB) assay; format: cell-based; conditions: MDA-MB-435, 72 h, read-out: IC50 (w/o HSA)
Procedure: Cytotoxicity measurements were conducted using MDA-MB-435 tumorigenic human breast cancer cells. The cells were exposed to a range of drug concentrations for 72 hr exposure periods and then viability was assessed using a sulphorrhodamine B (SRB) assay. The SRB measures the total protein levels in the living cells. Proteins from dead cells are lysed and removed in the washing step before TCA fixation. However, it is possible that cells in the early stage of death still have their membrane integrity and therefore retain the protein contents inside. As a result, the optical density at 490 nm can sometimes be overestimated and the cytotoxicity underestimated. […] The SRB assay is now a well regarded assay and was recently approved by NCl as a standard assay for anticancer drug screening. […] Each IC50 value represents the average of three separate trials with each dosage level studied in triplicate.

Compound | % Lactone ([1]; PBS pH 7.4, 3 hours) [%] | % Lactone ([1]; PBS pH 7.4, 24 hours) [%] | % Lactone ([2]; 3 hours) [%] | % Lactone ([2]; 24 hours) [%] | Ratio of Lactone Level Mouse/Human [3] | Percent Lactone in Mouse Blood after 3 Hours of Incubation [3] [%] | Percent Lactone in Human Blood after 3 Hours of Incubation [4] [%] | % Lactone ([4]; 3 hours incubation, pH 7.4, 37° C.) [%] | KDMPC overall association constant [5] [M⁻¹] | IC50 [6] [nM] | underestimation of human blood lactone level by mouse blood [3] [%] | % Lactone ([4]; 24 hours incubation, 37° C.) [%] | increase of lipophilicity for DMPC membranes relative to topotecan ([5]; 1 μM, pH 7.4) | decrease in DMPC binding upon ring opening (lactone vs carboxylate) [5] [fold]
CCC1(O)CC(=O)OCc2c1cc1n(c2=O)Cc2c-1nc1ccc(N)cc1c2[Si](C)(C)C (racemic) [DB-38, 5-Ethyl-1,4,5,13-tetrahydro-5-hydroxy-10-amino-12-trimethylsilyl-3H,15H-oxepino[3′,4′:6,7]indolizino[1,2-b]quinoline-3,15-dione] | 82.8 ± 0.7 | 26.8 ± 2.3 | 81.4 ± 0.3 | 34.1 ± 2.2 | 1.3 | 72 | 56 | 56.4 ± 0.6 | 1400 | 20 |  |  |  | 
CCC1(O)CC(=O)OCc2c1cc1n(c2=O)Cc2c-1nc1ccccc1c2[Si](C)(C)C(C)(C)C (racemic) [DB-81, 5-Ethyl-1,4,5,13-tetrahydro-5-hydroxy-12-tert-butyldimethylsilyl-3H,15H-oxepino[3′,4′:6,7]indolizino[1,2-b]quinoline-3,15-dione] | 84.9 ± 0.3 | 30.9 ± 2.0 | 88.1 ± 0.2 | 42.5 ± 1.6 | 0.9 | 80 | 87 |  | 14400 | 77 ± 13 | 6 | 27.0 ± 2.3 | over 1,400 fold | 
CCC1(O)CC(=O)OCc2c1cc1n(c2=O)Cc2c-1nc1ccc(N)cc1c2[Si](C)(C)C(C)(C)C (racemic) [DB-90, 5-Ethyl-1,4,5,13-tetrahydro-5-hydroxy-10-amino-12-tert-butyldimethylsilyl-3H,15H-oxepino[3′,4′:6,7]indolizino[1,2-b]quinoline-3,15-dione] | 83.7 ± 0.5 | 26.1 ± 1.0 | 86.8 ± 0.2 | 42.0 ± 2.7 | 0.7 | 61 | 85 |  | 8600 | 73 ± 8 |  | 24.6 ± 1.3 |  | 10
CCC1(O)CC(=O)OCc2c1cc1n(c2=O)Cc2c-1nc1ccc(O)cc1c2[Si](C)(C)C(C)(C)C (racemic) [DB-91, 5-Ethyl-1,4,5,13-tetrahydro-5-hydroxy-10-hydroxy-12-tert-butyldimethylsilyl-3H,15H-oxepino[3′,4′:6,7]indolizino[1,2-b]quinoline-3,15-dione] | 83.1 ± 0.3 | 32.2 ± 1.0 | 82.9 ± 0.3 | 33.2 ± 3.0 | 0.8 | 70 | 85 |  |  | 115 ± 5 | 20 | 37.1 ± 1.8 |  | 10
